{
  "source": "patent US4468511A",
  "about": "“C-20- And C-23-Modified macrolide derivatives” (Eli Lilly and Company, priority 1983, dated 1984)",
  "key": {"[1]": {"test_system": "Streptococcus pyogenes C203", "experiment": "Protection of mice experimentally infected with S. pyogenes C203", "assay_type": "in vivo", "method": "Some of the derivatives of this invention have shown in vivo antimicrobial activity against experimentally-induced infections in laboratory animals. When two doses of test compound were administered to mice experimentally infected with S. pyogenes C203, the activity observed was measured as an ED50 value [effective dose in mg/kg to protect 50% of the test animals: see Warren Wick, et al., J. Bacteriol. 81, 233-235 (1961)]."}, "[2]": {"test_system": "Staphylococcus aureus X400", "experiment": "MIC, standard agar-dilution assay", "assay_type": "cell-based", "details": "Staphylococcus aureus, X400", "method": "(§1) The MIC's in Table II were determined by standard agar-dilution assays. The MIC's in Table III were obtained using a conventional broth-dilution microtiter test."}, "[3]": {"test_system": "Haemophilus influenzae 76", "experiment": "MIC, standard agar-dilution assay", "assay_type": "cell-based", "details": "Haemophilus influenzae, 76", "method": "as §1"}, "[4]": {"test_system": "Staphylococcus epidermidis EPI2", "experiment": "MIC, standard agar-dilution assay", "assay_type": "cell-based", "details": "Staphylococcus epidermidis, EPI2", "method": "as §1"}, "[5]": {"test_system": "Haemophilus influenzae C.L.", "experiment": "MIC, standard agar-dilution assay", "assay_type": "cell-based", "details": "agar-dilution; Haemophilus influenzae C.L., Ampicillin-sensitive strain; read-out: MIC", "method": "as §1"}, "Pasteurella multocida": {"test_system": "Pasteurella multocida", "experiment": "Pasteurella infection in one-day old chicks", "assay_type": "in vivo", "details": "subcutaneous, 30 mg/kg × 2, 1 and 4 hours post-challenge", "method": "Certain of the formula 1 compounds of this invention have also shown in vivo activity against infections induced by gram-negative bacteria. Table V summarizes the results of tests in which illustrative compounds were evaluated against a Pasteurella infection in one-day old chicks. The compounds were administered parenterally after challenge of the chicks with Pasteurella multocida (0.1 ml of a 10^-4 dilution of a twenty-hour tryptose broth culture of an avian P. multocida given subcutaneously). In these tests, unless indicated otherwise, all non-medicated infected chicks died within 24 hours of Pasteurella challenge. In the tests summarized in Table V, the compounds were administered by subcutaneous injection at a dosage of 30 mg/kg, 1 and 4 hours post-challenge of the chicks with P. multocida."}, "[6]": {"test_system": "Streptococcus Group D X66", "experiment": "MIC, standard agar-dilution assay", "assay_type": "cell-based", "method": "(§2) Certain of the derivatives are active against some gram-negative bacteria, such as Pasteurella species. The MIC's in Table II were determined by standard agar-dilution assays. The MIC's in Table III were obtained using a conventional broth-dilution microtiter test."}, "[7]": {"test_system": "Streptococcus pyogenes 9960", "experiment": "MIC, standard agar-dilution assay", "assay_type": "cell-based", "details": "agar-dilution, Streptococcus 9960, read-out: MIC", "method": "as §2"}, "[8]": {"test_system": "Streptococcus pneumoniae Park I", "experiment": "MIC, standard agar-dilution assay", "assay_type": "cell-based", "details": "Streptococcus pneumoniae", "method": "as §2"}, "[9]": {"test_system": "Klebsiella pneumoniae X26", "experiment": "MIC, standard agar-dilution assay", "assay_type": "cell-based", "details": "agar-dilution; Klebsiella pneumoniae X26; read-out: MIC", "procedure,_shortened": "(§3)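 MICs for the two Pasteurella strains and the Mycoplasma strain were read from a broth-dilution microtiter test. The Klebsiella strain was tested on agar instead.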"}, "Escherichia coli TEM": {"test_system": "Escherichia coli TEM", "experiment": "MIC, standard agar-dilution assay", "assay_type": "cell-based", "details": "Escherichia coli", "procedure,_shortened": "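Minimum inhibitory concentrations against Escherichia coli were measured with a standard agar-dilution method. The result for each derivative is the lowest concentration that inhibits bacterial growth, given in ug/mL.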"}, "[10]": {"test_system": "Streptococcus pyogenes C203", "experiment": "MIC, standard agar-dilution assay", "assay_type": "cell-based", "details": "agar-dilution; Streptococcus pyogenes C203; read-out: MIC", "method": "as §2"}, "[11]": {"test_system": "Staphylococcus aureus X1.1", "experiment": "MIC, standard agar-dilution assay", "assay_type": "cell-based", "details": "Staphylococcus aureus, X1.1", "procedure,_shortened": "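Minimum inhibitory concentration against Staphylococcus aureus strain X1.1 was measured with a standard agar-dilution method. The result is reported as the MIC in ug/mL, i.e. the lowest compound concentration in agar that prevents visible growth of this organism.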"}, "[12]": {"test_system": "Klebsiella pneumoniae KAE", "experiment": "MIC, standard agar-dilution assay", "assay_type": "cell-based", "details": "agar-dilution; Klebsiella pneumoniae KAE; read-out: MIC", "procedure,_shortened": "(§4)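 Method depends on organism. Klebsiella pneumoniae was assayed on agar. Pasteurella spp. and Mycoplasma gallisepticum were assayed in broth microtiter dilution.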"}, "[13]": {"test_system": "Staphylococcus aureus V41", "experiment": "MIC, standard agar-dilution assay", "assay_type": "cell-based", "details": "Staphylococcus aureus, V41", "method": "as §2"}, "Escherichia coli EC14": {"test_system": "Escherichia coli EC14", "experiment": "MIC, standard agar-dilution assay", "assay_type": "cell-based", "details": "agar-dilution; Escherichia coli EC14; read-out: MIC", "method": "as §2"}, "[14]": {"test_system": "Staphylococcus aureus S13E", "experiment": "microbe, parasite or virus in culture", "assay_type": "cell-based", "method": "as §1"}, "[15]": {"test_system": "Staphylococcus epidermidis EPI1", "experiment": "microbe, parasite or virus in culture", "assay_type": "cell-based", "details": "Staphylococcus epidermidis, EPI1", "method": "as §1"}, "Mycoplasma synoviae": {"test_system": "Mycoplasma synoviae", "experiment": "MIC, conventional broth-dilution microtiter test", "assay_type": "cell-based", "details": "Mycoplasmopsis synoviae; broth-dilution microtiter; Mycoplasma synoviae; read-out: MIC", "procedure,_shortened": "as §3"}, "[16]": {"test_system": "Pasteurella hemolytica 22C", "experiment": "MIC, conventional broth-dilution microtiter test", "assay_type": "cell-based", "details": "Pasteurella, 22C", "procedure,_shortened": "as §4"}, "Mycoplasma gallisepticum": {"test_system": "Mycoplasma gallisepticum", "experiment": "MIC, conventional broth-dilution microtiter test", "assay_type": "cell-based", "details": "Mycoplasmoides gallisepticum", "procedure,_shortened": "as §4"}, "[17]": {"test_system": "Pasteurella multocida 68C", "experiment": "MIC, conventional broth-dilution microtiter test", "assay_type": "cell-based", "details": "Pasteurella multocida, 68C", "procedure,_shortened": "as §4"}, "[18]": {"test_system": "Pasteurella multocida 22A", "experiment": "MIC, conventional broth-dilution microtiter test", "assay_type": "cell-based", "details": "Pasteurella multocida, 22A", "procedure,_shortened": "as §4"}, "[19]": {"test_system": "Pasteurella multocida 40G", "experiment": "MIC, conventional broth-dilution microtiter test", "assay_type": "cell-based", "details": "Pasteurella multocida, 40G", "procedure,_shortened": "as §4"}, "[20]": {"test_system": "Pasteurella multocida 60A", "experiment": "MIC, conventional broth-dilution microtiter test", "assay_type": "cell-based", "details": "Pasteurella multocida, 60A", "procedure,_shortened": "as §4"}, "[21]": {"test_system": "Pasteurella hemolytica 23C", "experiment": "MIC, conventional broth-dilution microtiter test", "assay_type": "cell-based", "details": "Pasteurella, 23C", "procedure,_shortened": "as §4"}, "[22]": {"test_system": "Pasteurella hemolytica 41D", "experiment": "MIC, conventional broth-dilution microtiter test", "assay_type": "cell-based", "details": "Pasteurella, 41D", "procedure,_shortened": "as §4"}, "[23]": {"test_system": "Mycoplasma gallisepticum 41313", "experiment": "MIC, conventional broth-dilution microtiter test", "assay_type": "cell-based", "details": "Mycoplasmoides gallisepticum; broth-dilution microtiter; Mycoplasma gallisepticum 41313, Resistant strain; read-out: MIC", "procedure,_shortened": "as §4"}, "Mycoplasma hyorhinis": {"test_system": "Mycoplasma hyorhinis", "experiment": "MIC, conventional broth-dilution microtiter test", "assay_type": "cell-based", "details": "broth-dilution microtiter; Mycoplasma hyorhinis; read-out: MIC", "procedure,_shortened": "as §3"}, "[24]": {"test_system": "Mycoplasma gallisepticum 34159", "experiment": "MIC, conventional broth-dilution microtiter test", "assay_type": "cell-based", "details": "Mycoplasmoides gallisepticum; broth-dilution microtiter; Mycoplasma gallisepticum 34159, Resistant strain; read-out: MIC", "procedure,_shortened": "as §4"}, "Streptococcus sp. 80": {"test_system": "Streptococcus sp. 80", "experiment": "MIC, conventional broth-dilution microtiter test", "assay_type": "cell-based", "details": "Streptococcus, SP.80", "method": "as §2"}, "Staphylococcus aureus": {"test_system": "Staphylococcus aureus", "experiment": "MIC, conventional broth-dilution microtiter test", "assay_type": "cell-based", "details": "broth-dilution microtiter, read-out: MIC", "method": "as §2"}, "[25]": {"test_system": "Pasteurella multocida 17E", "experiment": "MIC, conventional broth-dilution microtiter test", "assay_type": "cell-based", "details": "Pasteurella multocida, 17E", "procedure,_shortened": "as §4"}},
  "note": "Read-outs that look alike come from different tables or passages of the source.",
  "data": [
    {"smiles": "CCC1CC(C)C(=O)C=CC(C)=CC(CN2CCCCCCC2)C(CC)OC(=O)CC(O)C(C)C1OC1OC(C)C(O)C(N(C)C)C1O", "note": "(stereo not shown) [Compound 43, 23-Octahydroazocin-1-yl-20,23-dideoxy-20-dihydro-OMT]", "values": [
      {"measurement": "ED50", "setting": "[1]; C203, po, read-out: ED50 Oral", "result": "> 100", "unit": "mg/kg"},
      {"measurement": "ED50", "setting": "[1]; C203, sc, mice, subcutaneous, mg/kg × 2, doses given 1 and 4 hours postinfection, read-out: ED50 Subcutaneous", "result": "> 12.5", "unit": "mg/kg"},
      {"measurement": "MIC", "setting": "[2]", "result": 1, "unit": "µg/mL"},
      {"measurement": "MIC", "setting": "[3]", "result": 8, "unit": "µg/mL"},
      {"measurement": "MIC", "setting": "[4]", "result": 0.25, "unit": "µg/mL"},
      {"measurement": "MIC", "setting": "[5]", "result": 4, "unit": "µg/mL"},
      {"measurement": "Number of Deaths/Number Treated", "setting": "Pasteurella multocida", "result": "8/10"},
      {"measurement": "MIC", "setting": "[6]", "result": 1, "unit": "µg/mL"},
      {"measurement": "MIC", "setting": "[7]", "result": 2, "unit": "µg/mL"},
      {"measurement": "MIC", "setting": "[8]", "result": 1, "unit": "µg/mL"},
      {"measurement": "MIC", "setting": "[9]", "result": 4, "unit": "µg/mL"},
      {"measurement": "MIC", "setting": "Escherichia coli TEM", "result": 16, "unit": "µg/mL"},
      {"measurement": "MIC", "setting": "[10]", "result": 0.12, "unit": "µg/mL"},
      {"measurement": "MIC", "setting": "[11]", "result": 0.5, "unit": "µg/mL"},
      {"measurement": "MIC", "setting": "[12]", "result": "> 128", "unit": "µg/mL"},
      {"measurement": "MIC", "setting": "[13]", "result": 0.5, "unit": "µg/mL"},
      {"measurement": "MIC", "setting": "Escherichia coli EC14", "result": "> 128", "unit": "µg/mL"},
      {"measurement": "MIC", "setting": "[14]", "result": 0.5, "unit": "µg/mL"},
      {"measurement": "MIC", "setting": "[15]", "result": 0.5, "unit": "µg/mL"},
      {"measurement": "MIC", "setting": "Mycoplasma synoviae", "result": "> 50", "unit": "µg/mL"},
      {"measurement": "MIC", "setting": "[16]", "result": 0.78, "unit": "µg/mL"},
      {"measurement": "MIC", "setting": "Mycoplasma gallisepticum", "result": 0.78, "unit": "µg/mL"},
      {"measurement": "MIC", "setting": "[17]", "result": 1.56, "unit": "µg/mL"},
      {"measurement": "MIC", "setting": "[18]", "result": 1.56, "unit": "µg/mL"},
      {"measurement": "MIC", "setting": "[19]", "result": 1.56, "unit": "µg/mL"},
      {"measurement": "MIC", "setting": "[20]", "result": 0.78, "unit": "µg/mL"},
      {"measurement": "MIC", "setting": "[21]", "result": 1.56, "unit": "µg/mL"},
      {"measurement": "MIC", "setting": "[22]", "result": 1.56, "unit": "µg/mL"},
      {"measurement": "MIC", "setting": "[23]", "result": "> 50", "unit": "µg/mL"},
      {"measurement": "MIC", "setting": "Mycoplasma hyorhinis", "result": 50, "unit": "µg/mL"},
      {"measurement": "MIC", "setting": "[24]", "result": "> 50", "unit": "µg/mL"},
      {"measurement": "MIC", "setting": "Streptococcus sp. 80", "result": 0.78, "unit": "µg/mL"},
      {"measurement": "MIC", "setting": "Staphylococcus aureus", "result": 0.39, "unit": "µg/mL"},
      {"measurement": "MIC", "setting": "[25]", "result": 0.78, "unit": "µg/mL"}
    ]}
  ]
}
